Reference: patent US20230322776A1, “NEW ARYL-PYRIDO-PYRIMIDIN-ONE DERIVATIVES” (Hoffmann-La Roche Inc., priority 2020, published 2023)

What was measured:
[1] = target: BRAF V660E (Homo sapiens, UniProt P15056, V600E); experiment: KD BRAF V660E (Table 1; no method described); assay type: binding
[2] = test system: A375 cells (V600E mutated BRAF), ERK phospho-T202/Y204; experiment: HTRF assay for P-ERK determination in A375 cells (BRAF inhibition); assay type: cell-based; settings: Homo sapiens, A-375, 1 hour drug incubation, DMSO = 100%, 10 μM Dabrafenib = 0%, top concentration 10 μM, read-out: P-ERK_A375: IC50
From the text: (§1) A375 is a cellular cancer model expressing V600E mutated BRAF and HCT116 a cellular cancer model expressing WT BRAF. First generation BRAF inhibitors such as e.g. dabrafenib induce a paradox effect on tumour cells in that they inhibit the growth of V600E mutated BRAF cells (such as e.g. A375), while they activate growth in WT BRAF cells (such as e.g. HCT 116). ERK 1,2 phosphorylation (terminal member of the phosphorylation cascade of the MAPK pathway) is hereafter reported as main readout for the activation status of the MAPK pathway. DMEM no-phenol red medium supplemented with L-glutamine was purchased from (Thermo Fisher Scientific). Fetal bovine serum (FBS) was purchased from VWR. Advanced ERK phospho-T202/Y204 kit—10,000 tests was purchased from Cisbio cat #64AERPEH. A375 (catalog #CRL-1619) and HCT116 (catalog #CCL-247) cells were originally obtained from American type Culture Collection (ATCC) and banked by the Roche repository. 384-Well microplates ultized were purchased from Greiner Bio-One, 384-well, (With Lid, HiBase, Low volume cat 784-080).
(§2) HTRF Assay for P-ERK Determination in A375 or HCT116 Cells
(§3) Prior to the assay, A375 and HCT116 cell lines are maintained in DMEM no-phenol red medium supplemented with 10% fetal bovine serum (FBS). Following compound treatment, P-ERK levels are determined by measuring FRET fluorescence signal induced by selective binding of two antibodies provided in the mentioned kit (Cisbio cat #64AERPEH) on ERK protein when phosphorylated at Thr202/Tyr204. Briefly, 8000 cells/well in 12 μl media/well are plated in the 384-well plate and left overnight in the incubator (at 37° C. with 5% CO2-humidified atmosphere), the following day the plate is treated in duplicate with test compounds, dabrafenib and PLX8394 (the latter two as controls) at the following final drug concentrations: 10 μM, 3 μM, 1 μM, 0.3 μM, 0.1 μM, 0.03 μM, 0.01 μM, 0.003 μM and 0.001 μM. All wells are subjected to DMSO normalization and drug incubation occurs for 1 hour. Then, 4 μl of a 4× lysis buffer supplied with the kit are added to the wells, the plate is then centrifuged for 30 second (3000 rpm) and incubated on a plate shaker for 1 h at rt.
(§4) At the end of the incubation 4 μl/well of advanced P-ERK antibody solution (prepared according to manufacturer's instruction) followed by 4 μl/well of criptate P-ERK antibody solution (prepared according to manufacturer's instruction) (Cisbio cat #64AERPEH) are added to test wells.
(§5) In order to allow proper data normalization, control wells non drug treated reported in the following table are always included in each plate (according to manufacturer's instruction):
(§6) The plate is then centrifuged at 3000 rpm for 30 seconds, sealed to prevent evaporation and incubated overnight in the dark at room temperature. The plate is then analyzed and fluorescence emission value collected through a Pherastast FSX (BMG Labtech) apparatus at […]. The obtained fluorescence values are processed according to the formula Ratio=[…]*10000 then the average of the ratio on the blank is subtracted to all values.
Data are normalized in the case of A375 cells (BRAF inhibition) considering the average of the ratio (blank subtracted) derived by DMSO only treated cells as 100% and by considering the average of the ratio (blank subtracted) derived by 10 μM Dabrafenib treated cells as 0%. Mean of the normalized points are fitted with sigmoidal curve and IC50 values are determined.

[3] = test system: HCT116 cells (WT BRAF), ERK phospho-T202/Y204; experiment: HTRF assay for P-ERK determination in HCT116 cells (BRAF activation, paradox); assay type: cell-based; settings: for EC50: Homo sapiens, HCT-116, HCT116 cells, 1 hour drug incubation, activation relative to maximum Dabrafenib-mediated activation (100%), top concentration 10 μM, read-out: P-ERK_HCT-116: EC50—50PCT; for Fold Selectivity HCT-116 EC50-50/ A375: ratio of P-ERK HCT-116 EC50-50PCT to P-ERK A375 IC50
From the text: as §1, §2, §3, §4, §5, §6
Data are normalized in the case of HCT116 cells (BRAF activation) considering the average of the ratio (blank subtracted) derived by DMSO only treated cells as 0% and by considering the average of the ratio (blank subtracted) derived by Dabrafenib treated cells at the concentration which provides the highest signal as 100%. Individual points are fitted with either sigmoidal or bell shape curves, the percentage of activation compared to maximum Dabrafenib-mediated activation is determined.

[4] = target: BRAF (Homo sapiens, UniProt P15056); experiment: KD BRAF (Table 1; no method described); assay type: binding
Sequence of BRAF (P15056 whole entry): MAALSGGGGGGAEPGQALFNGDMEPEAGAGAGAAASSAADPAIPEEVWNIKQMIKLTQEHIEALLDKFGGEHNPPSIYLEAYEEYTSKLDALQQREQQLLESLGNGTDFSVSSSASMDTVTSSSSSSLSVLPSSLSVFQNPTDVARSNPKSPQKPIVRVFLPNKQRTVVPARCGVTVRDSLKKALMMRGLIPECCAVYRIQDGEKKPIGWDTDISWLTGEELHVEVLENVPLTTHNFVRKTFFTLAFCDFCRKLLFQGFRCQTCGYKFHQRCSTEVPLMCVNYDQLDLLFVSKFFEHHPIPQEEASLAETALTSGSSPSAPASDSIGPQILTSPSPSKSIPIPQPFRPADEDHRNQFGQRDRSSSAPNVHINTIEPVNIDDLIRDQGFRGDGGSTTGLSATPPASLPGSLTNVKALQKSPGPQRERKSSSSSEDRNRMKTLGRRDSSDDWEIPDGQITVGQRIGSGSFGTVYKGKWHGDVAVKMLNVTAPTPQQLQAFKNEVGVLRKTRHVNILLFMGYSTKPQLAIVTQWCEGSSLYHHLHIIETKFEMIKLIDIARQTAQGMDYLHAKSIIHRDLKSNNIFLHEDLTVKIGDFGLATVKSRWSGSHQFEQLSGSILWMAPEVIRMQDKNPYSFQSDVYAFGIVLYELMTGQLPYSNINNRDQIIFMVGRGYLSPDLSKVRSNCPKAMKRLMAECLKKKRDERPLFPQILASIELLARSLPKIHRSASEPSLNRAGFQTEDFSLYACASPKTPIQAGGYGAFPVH

Sequence of BRAF V660E (P15056 2-766 V600E): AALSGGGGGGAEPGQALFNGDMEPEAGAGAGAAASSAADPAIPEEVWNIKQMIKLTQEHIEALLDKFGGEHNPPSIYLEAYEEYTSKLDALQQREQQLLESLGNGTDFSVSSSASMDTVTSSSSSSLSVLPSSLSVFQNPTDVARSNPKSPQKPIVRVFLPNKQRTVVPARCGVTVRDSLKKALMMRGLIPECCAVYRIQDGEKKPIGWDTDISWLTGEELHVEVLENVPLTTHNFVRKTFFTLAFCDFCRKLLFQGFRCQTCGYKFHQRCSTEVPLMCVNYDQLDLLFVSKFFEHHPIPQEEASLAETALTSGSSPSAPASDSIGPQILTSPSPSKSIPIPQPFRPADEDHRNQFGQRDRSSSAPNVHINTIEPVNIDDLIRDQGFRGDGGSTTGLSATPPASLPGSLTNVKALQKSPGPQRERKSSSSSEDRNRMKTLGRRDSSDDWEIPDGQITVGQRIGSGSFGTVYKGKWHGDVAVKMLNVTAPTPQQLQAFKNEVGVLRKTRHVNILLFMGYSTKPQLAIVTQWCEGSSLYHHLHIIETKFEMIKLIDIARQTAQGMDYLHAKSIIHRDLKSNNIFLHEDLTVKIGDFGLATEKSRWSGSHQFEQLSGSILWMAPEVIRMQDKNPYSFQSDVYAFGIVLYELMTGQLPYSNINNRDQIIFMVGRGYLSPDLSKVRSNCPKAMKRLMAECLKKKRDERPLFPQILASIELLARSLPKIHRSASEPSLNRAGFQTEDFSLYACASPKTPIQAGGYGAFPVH

Question: Which Kd [1] does the source give for CC(C)(C)OC(=O)N1CCC(n2c(=O)c(-c3c(F)ccc(NS(=O)(=O)N4CC[C@@H](F)C4)c3F)cc3cnc(NCC4CC4)nc32)C1 (mixture of isomers) [Example 38, tert-Butyl (3RS)-3-[2-(cyclopropylmethylamino)-6-[2,6-difluoro-3-[[(3R)-3-fluoropyrrolidin-1-yl]sulfonylamino]phenyl]-7-oxopyrido[2,3-d]pyrimidin-8-yl]pyrrolidine-1-carboxylate] here?
Answer: 2820 nM

Question: And the IC50 [2]?
Answer: 826 nM

Question: And the EC50 [3]?
Answer: ≥ 10000 nM

Question: What about the “Fold Selectivity HCT-116 EC50-50/ A375” value [3] of the same molecule?
Answer: 12.1

Question: And the Kd [4]?
Answer: 1420 nM

Question: Which Kd [1] does the source give for Cl.O=c1c(-c2c(F)ccc(NS(=O)(=O)N3CC[C@@H](F)C3)c2F)cc2cnc(NCC3CC3)nc2n1C1CCNC1 (mixture of isomers) [Example 40, (3R)-N-[3-[2-(cyclopropylmethylamino)-7-oxo-8-[(3RS)-pyrrolidin-3-yl]pyrido[2,3-d]pyrimidin-6-yl]-2,4-difluorophenyl]-3-fluoropyrrolidine-1-sulfonamide hydrochloride] here?
Answer: 408 nM

Question: What about the IC50 [2] of the same molecule?
Answer: 3810 nM

Question: And the EC50 [3]?
Answer: ≥ 10000 nM

Question: And the “Fold Selectivity HCT-116 EC50-50/ A375” value [3]?
Answer: 2.6

Question: And the Kd [4]?
Answer: 145 nM

Question: For CC(=O)N1CCC(n2c(=O)c(-c3c(F)ccc(NS(=O)(=O)N4CC[C@@H](F)C4)c3F)cc3cnc(NCC4CC4)nc32)C1 (mixture of isomers) [Example 42, (3R)-N-[3-[8-((3RS)-1-acetylpyrrolidin-3-yl)-2-(cyclopropylmethylamino)-7-oxopyrido[2,3-d]pyrimidin-6-yl]-2,4-difluorophenyl]-3-fluoropyrrolidine-1-sulfonamide], which Kd [1] is on record?
Answer: 50.4 nM

Question: What about the IC50 [2] of the same molecule?
Answer: 378 nM

Question: What about the EC50 [3] of the same molecule?
Answer: 4840 nM

Question: What about the “Fold Selectivity HCT-116 EC50-50/ A375” value [3] of the same molecule?
Answer: 12.8

Question: What about the Kd [4] of the same molecule?
Answer: 22.6 nM

Question: How did the Kd [1] turn out when CC(=O)N[C@@H]1CC[C@@H](Nc2ncc3cc(-c4c(F)ccc(NS(=O)(=O)N5CC[C@@H](F)C5)c4F)c(=O)n(C)c3n2)C1 (racemic) [Example 23, N-[(1R,3R)-3-[[6-[2,6-difluoro-3-[[(3R)-3-fluoropyrrolidin-1-yl]sulfonylamino]phenyl]-8-methyl-7-oxopyrido[2,3-d]pyrimidin-2-yl]amino]cyclopentyl]acetamide AND N-[(1S,3S)-3-[[6-[2,6-difluoro-3-[[(3R)-3-fluoropyrrolidin-1-yl]sulfonylamino]phenyl]-8-methyl-7-oxopyrido[2,3-d]pyrimidin-2-yl]amino]cyclopentyl]acetamide] was run?
Answer: 21.1 nM

Question: And the IC50 [2]?
Answer: 69 nM

Question: And the EC50 [3]?
Answer: 4100 nM

Question: And the “Fold Selectivity HCT-116 EC50-50/ A375” value [3]?
Answer: 59.4

Question: And the Kd [4]?
Answer: 7.5 nM

Question: What does the source list for Cn1c(=O)c(-c2c(F)ccc(NS(=O)(=O)N3CC[C@@H](F)C3)c2F)cc2cnc(NCCC3CCN(C(=O)OC(C)(C)C)CC3)nc21 [Example 1, tert-Butyl 4-[2-[[6-[2,6-difluoro-3-[[(3R)-3-fluoropyrrolidin-1-yl]sulfonylamino]phenyl]-8-methyl-7-oxopyrido[2,3-d]pyrimidin-2-yl]amino]ethyl]piperidine-1-carboxylate]?
Answer: Kd [1]: 190 nM; IC50 [2]: 63.3 nM; EC50 [3]: 3360 nM; Fold Selectivity HCT-116 EC50-50/ A375 [3]: 53.1; Kd [4]: 108 nM

Question: With Cn1c(=O)c(-c2c(F)ccc(NS(=O)(=O)N3CC[C@@H](F)C3)c2F)cc2cnc(NCCc3ccccc3)nc21 [Example 2, (3R)-N-[2,4-difluoro-3-[8-methyl-7-oxo-2-(2-phenylethylamino)pyrido[2,3-d]pyrimidin-6-yl]phenyl]-3-fluoropyrrolidine-1-sulfonamide] as the molecule, how does the Kd [1] read?
Answer: 23 nM

Question: What about the IC50 [2] of the same molecule?
Answer: 6 nM

Question: What about the EC50 [3] of the same molecule?
Answer: 491 nM

Question: What about the “Fold Selectivity HCT-116 EC50-50/ A375” value [3] of the same molecule?
Answer: 81.8

Question: What about the Kd [4] of the same molecule?
Answer: 7.9 nM

Question: Which results are given for Cn1c(=O)c(-c2c(F)ccc(NS(=O)(=O)N3CC[C@@H](F)C3)c2F)cc2cnc(NCCCC(=O)OC(C)(C)C)nc21 [Example 3, tert-butyl 4-[[6-[2,6-difluoro-3-[[(3R)-3-fluoropyrrolidin-1-yl]sulfonylamino]phenyl]-8-methyl-7-oxopyrido[2,3-d]pyrimidin-2-yl]amino]butanoate]?
Answer: Kd [1]: 47.4 nM; IC50 [2]: 13.1 nM; EC50 [3]: 917 nM; Fold Selectivity HCT-116 EC50-50/ A375 [3]: 69.8; Kd [4]: 15.1 nM

Question: Which results are given for Cn1c(=O)c(-c2c(F)ccc(NS(=O)(=O)N3CC[C@@H](F)C3)c2F)cc2cnc(NCCOCCOCCO)nc21 [Example 4, (3R)-N-[2,4-difluoro-3-[2-[2-[2-(2-hydroxyethoxy)ethoxy]ethylamino]-8-methyl-7-oxopyrido[2,3-d]pyrimidin-6-yl]phenyl]-3-fluoropyrrolidine-1-sulfonamide]?
Answer: Kd [1]: 99 nM; IC50 [2]: 47.4 nM; EC50 [3]: ≥ 10000 nM; Fold Selectivity HCT-116 EC50-50/ A375 [3]: >211.0; Kd [4]: 39.9 nM

Question: With Cn1c(=O)c(-c2c(F)ccc(NS(=O)(=O)N3CC[C@@H](F)C3)c2F)cc2cnc(NCCCc3ccccc3)nc21 [Example 5, (3R)-N-[2,4-difluoro-3-[8-methyl-7-oxo-2-(3-phenylpropylamino)pyrido[2,3-d]pyrimidin-6-yl]phenyl]-3-fluoropyrrolidine-1-sulfonamide] as the molecule, how does the Kd [1] read?
Answer: 115 nM

Question: What about the IC50 [2] of the same molecule?
Answer: 42.6 nM

Question: And the EC50 [3]?
Answer: 394 nM

Question: And the “Fold Selectivity HCT-116 EC50-50/ A375” value [3]?
Answer: 9.2

Question: What about the Kd [4] of the same molecule?
Answer: 46.5 nM

Question: For Cn1c(=O)c(-c2c(F)ccc(NS(=O)(=O)N3CC[C@@H](F)C3)c2F)cc2cnc(NCCOc3ccccc3)nc21 [Example 6, (3R)-N-[2,4-difluoro-3-[8-methyl-7-oxo-2-(2-phenoxyethylamino)pyrido[2,3-d]pyrimidin-6-yl]phenyl]-3-fluoropyrrolidine-1-sulfonamide], which Kd [1] is on record?
Answer: 120 nM

Question: What about the IC50 [2] of the same molecule?
Answer: 13.4 nM

Question: And the EC50 [3]?
Answer: 711 nM

Question: And the “Fold Selectivity HCT-116 EC50-50/ A375” value [3]?
Answer: 52.9

Question: And the Kd [4]?
Answer: 35.7 nM

Question: Which Kd [1] does the source give for Cn1c(=O)c(-c2c(F)ccc(NS(=O)(=O)N3CC[C@@H](F)C3)c2F)cc2cnc(NC3CCCC3)nc21 [Example 7, (3R)-N-[3-[2-(cyclopentylamino)-8-methyl-7-oxopyrido[2,3-d]pyrimidin-6-yl]-2,4-difluorophenyl]-3-fluoropyrrolidine-1-sulfonamide] here?
Answer: 282 nM

Question: What about the IC50 [2] of the same molecule?
Answer: 30.8 nM

Question: What about the EC50 [3] of the same molecule?
Answer: 2170 nM

Question: What about the “Fold Selectivity HCT-116 EC50-50/ A375” value [3] of the same molecule?
Answer: 70.5

Question: And the Kd [4]?
Answer: 91.2 nM

Question: For Cn1c(=O)c(-c2c(F)ccc(NS(=O)(=O)N3CCCC3)c2F)cc2cnc(NCCC3CCN(C(=O)OC(C)(C)C)CC3)nc21 [Example 8, tert-butyl 4-[2-[[6-[2,6-difluoro-3-(pyrrolidin-1-ylsulfonylamino)phenyl]-8-methyl-7-oxopyrido[2,3-d]pyrimidin-2-yl]amino]ethyl]piperidine-1-carboxylate], which Kd [1] is on record?
Answer: 314 nM

Question: And the IC50 [2]?
Answer: 241 nM

Question: And the EC50 [3]?
Answer: 9760 nM

Question: And the “Fold Selectivity HCT-116 EC50-50/ A375” value [3]?
Answer: 40.5

Question: And the Kd [4]?
Answer: 261 nM

Question: Which IC50 [2] does the source give for Cn1c(=O)c(-c2c(F)ccc(NS(=O)(=O)N3CC[C@@H](F)C3)c2F)cc2cnc(NCCN3CCN(C(=O)OC(C)(C)C)CC3)nc21 [Example 45, tert-butyl 4-[2-[[6-[2,6-difluoro-3-[[(3R)-3-fluoropyrrolidin-1-yl]sulfonylamino]phenyl]-8-methyl-7-oxopyrido[2,3-d]pyrimidin-2-yl]amino]ethyl]piperazine-1-carboxylate] here?
Answer: 26.8 nM

Question: What about the EC50 [3] of the same molecule?
Answer: 1480 nM

Question: And the “Fold Selectivity HCT-116 EC50-50/ A375” value [3]?
Answer: 55.1
